{"source": "paper PMC8330795", "about": "“In silico identification and experimental validation of cellular uptake by a new cell penetrating peptide P1 derived from MARCKS” (Drug Delivery, 2021)", "key": {"MCF7": {"system": "MCF7", "assay": "Cellular uptake of FITC-labeled peptide, fluorescence microscopy and lysate fluorescence", "format": "cell-based, human", "conditions": "FITC-labeled peptide 5 μM; MCF7 compared with other cell lines", "protocol": "(§1) Cells were suspended in regular culture media and seeded on coverslip in a 24-well plate at a concentration of 1.6 × 10^4 cells/well. Rinsing with PBS twice after 24 h of incubation for cell attachment, FITC-labeled peptides at indicated concentrations were added with 0.5 ml serum-free media/well and incubated for 1 hour at 37 °C. After incubation, the cells were washed with PBS at least three times. 4′,6-diamidino-2-phenylindole (DAPI) was added to each well and incubated for 5 min after fixation with 4% paraformaldehyde (PFA) in PBS. The cells were washed with PBS, mounted on the slide, and observed by fluorescence microscopy (Nikon, Tokyo, Japan).\n(§2) To analyze the internalization efficiency of CPP, the fluorescence of cell lysates and supernatants was measured using TECAN Safire multi-well reader with excitation and emission wavelengths set to 485 nm and 535 nm, following the protocol published (Wang et al., [2010]; Ma et al., [2015]; Wang et al., [2016]; [2016]; Zhou et al., [2017]; Shao et al., [2016]; Zhang et al., [2019]; Geng et al., [2020]). After the cell incubation with peptide and washing step described above, cells were lysed with 300 µl lysis buffer (0.1 M NaOH) for 10 minutes and centrifuged at 800 rpm for 5 minutes. Fluorescence in the 50 µl supernatant transferred to a 96-well plate was monitored by the plate-reader spectrophotometer (Tecan, Mannedorf, Switzerland). […]"}, "HSC-T6 cells [1]": {"system": "HSC-T6 cells", "assay": "Cellular uptake of FITC-labeled peptide, fluorescence microscopy and lysate fluorescence", "format": "cell-based, rat", "protocol": "Cells were suspended in regular culture media and seeded on coverslip in a 24-well plate at a concentration of 1.6 × 10^4 cells/well. Rinsing with PBS twice after 24 h of incubation for cell attachment, FITC-labeled peptides at indicated concentrations were added with 0.5 ml serum-free media/well and incubated for 1 hour at 37 °C. After incubation, the cells were washed with PBS at least three times. 4′,6-diamidino-2-phenylindole (DAPI) was added to each well and incubated for 5 min after fixation with 4% paraformaldehyde (PFA) in PBS. The cells were washed with PBS, mounted on the slide, and observed by fluorescence microscopy (Nikon, Tokyo, Japan). To analyze the internalization efficiency of CPP, the fluorescence of cell lysates and supernatants was measured using TECAN Safire multi-well reader with excitation and emission wavelengths set to 485 nm and 535 nm, following the protocol published (Wang et al., [2010]; Ma et al., [2015]; Wang et al., [2016]; [2016]; Zhou et al., [2017]; Shao et al., [2016]; Zhang et al., [2019]; Geng et al., [2020]). After the cell incubation with peptide and washing step described above, cells were lysed with 300 µl lysis buffer (0.1 M NaOH) for 10 minutes and centrifuged at 800 rpm for 5 minutes. Fluorescence in the 50 µl supernatant transferred to a 96-well plate was monitored by the plate-reader spectrophotometer (Tecan, Mannedorf, Switzerland). The amount of FITC-labeled peptides internalized were normalized by protein concentration, and the experiments indicated were repeated at least three times."}, "BV2": {"system": "BV2", "assay": "Peptide-mediated transfection of pdsRed plasmid, RFP expression", "format": "cell-based, mouse", "conditions": "BV2, 80:1 group", "protocol": "HSC-T6, BV2 and MCF7 cells (4 × 10^4 cells/well) were seeded onto 24-well plates 24 h before the experiment. Cells were incubated with CPP-P1/pDNA complexes at indicated N/P ratios for 4 hrs in serum-free media, and then were incubated for 24 h or 48 h after adding media with 10% serum. Live cell imaging under fluorescence microscope was carried out to estimate peptide-based transfection efficiency. Cells transfected with TurboFectin (OriGene, Beijing, China) were used as positive transfection reagent."}, "Mouse erythrocytes": {"system": "Mouse erythrocytes", "assay": "Hemolysis assay", "format": "cell-based", "conditions": "mouse erythrocytes in PBS, 37 °C, 2 h, absorbance 450 nm; 0.1% Triton X-100 positive control", "protocol": "Mouse erythrocytes free of plasma components were separated by centrifugation at 1000 rpm for 5 minutes and washed three times with PBS. The washed mouse erythrocytes were resuspended in PBS and treated with indicated concentrations of peptides at 37 °C for 2 h. Hemolysis was examined by measuring the absorbance of supernatant at the wavelength of 450 nm, and 0.1% Triton X-100 was used as a positive control."}, "HSC-T6 cells [2]": {"system": "HSC-T6 cells", "description": "Cytotoxicity was measured using MTT assay. Grown cells were inoculated for 24 h at a density of 10000 cells/well in 96-well plates. After washing with PBS, the indicated concentrations of peptides were added, following by further incubation for 24 h or 48 h. After at least two-times washing, 5 mg/ml MTT dissolved in PBS with serum-free media was added into plates for another 4 h incubation. Dimethyl sulfoxide (DMSO) was added into plates and incubated at 37 °C for 15–30 minutes to dissolve the formazan crystals. The absorbance of aliquot from each well was measured at 490 nm using a Multiskan Spectrum (Thermo Fisher Scientific, Waltham, MA, USA) microplate reader. Experiments were repeated three times."}, "BV2 cells": {"system": "BV2 cells", "assay": "Cellular uptake of FITC-labeled peptide, fluorescence microscopy and lysate fluorescence", "format": "cell-based, mouse", "conditions": "FITC-labeled peptide 5 μM", "protocol": "as §1, §2"}}, "data": [{"sequence": "KKKKKRFSFKKSFKLSGFSFKKNKK [P1]", "values": [{"measurement": "penetration efficiency in different cell lines", "setting": "MCF7", "result": "higher penetration efficiency in MCF7"}, {"measurement": "penetration efficiency with chloroquine (CQ)", "setting": "HSC-T6 cells [1]; 100 μM CQ, fluorescent quantification, Figure S6, cell line not stated at place", "result": "no obvious effect"}, {"measurement": "fluorescence of peptide versus incubation time", "setting": "HSC-T6 cells [1]; FITC-labeled peptide 5 μM, after 1 hour treatment, longer incubation times, images and fluorescence quantification", "result": "significantly decreased as incubation time increased"}, {"measurement": "penetration property versus peptide concentration", "setting": "HSC-T6 cells [1]; FITC-labeled peptide, 1 hour, 37 °C, serum-free media, fluorescence normalized with protein concentration", "result": "concentration dependent"}, {"measurement": "penetration efficiency with sucrose", "setting": "HSC-T6 cells [1]; peptide 5 μM with 0.3 M and 0.6 M sucrose, cell line not stated at place", "result": "inhibited"}, {"measurement": "penetration efficiency with penetration enhancer DMSO", "setting": "HSC-T6 cells [1]; peptide 5 μM with 5% DMSO (2.5% and 5% tested), cell line not stated at place", "result": "enhanced"}, {"measurement": "penetration efficiency at low temperature", "setting": "HSC-T6 cells [1]; peptide 5 μM, 25 °C and 4 °C compared to 37 °C", "result": "significantly inhibited"}, {"measurement": "uptake inhibited by endocytosis inhibitors", "setting": "HSC-T6 cells [1]; peptide 5 μM, same inhibitor list, inhibitor giving this value not specified", "result": "about 20%"}, {"measurement": "penetration efficiency compared with other published CPPs", "setting": "HSC-T6 cells [1]; peptides 5 μM, FITC-labeled, versus MT23 and TAT, cell line not stated at place", "result": "higher penetration efficiency than MT23 and TAT"}, {"measurement": "RFP expression at N/P 80:1", "setting": "BV2", "result": "could not find RFP positive cells"}, {"measurement": "hemolysis of red blood cells", "setting": "Mouse erythrocytes", "result": "minimally perturbed"}, {"measurement": "cytotoxicity, MTT assay", "setting": "HSC-T6 cells [2]", "result": "did not find significant cytotoxicity"}, {"measurement": "penetration into hard-to-translocate cells", "setting": "BV2 cells", "result": "could enter into hard-to-translocate BV2 cells in significant amount"}]}]}
